One data set deals with T1, TRKA Protein (wild type) (Homo sapiens, UniProt P04629).
T1 construct: purchased abcam ab60887
The data set can be described thus: Detection of TRK inhibitory activity (ADP-Glo kinase assay), TRKA wild type. The format is biochemical. The conditions noted are these: 35 min at room temperature. The procedure:
(§1) An enzyme reaction buffer was prepared containing 25 mM MOPS, 5 mM MgCl2, 500 μM DTT and 0.005% Triton, and then adjusted to pH 7.5.
(§2) The test compound was diluted with DMSO to 200 times of the desired final concentration, and mixed evenly, then 3 μL of the solution was pipetted to 117 μL of enzyme reaction buffer and mixed thoroughly. Then, 3 μL of the enzyme reaction buffer containing the test compound was pipetted to a 96-well PCR plate. The positive and negative control wells were filled with 3 μL of enzyme reaction buffer containing 2.5% DMSO, respectively. TRK protein was diluted to 0.4 ng/μL with the enzyme reaction buffer, and 6 μL of diluted TRK protein was added to each well except for the well for the blank control group, in which 6 μL of the enzyme reaction buffer was added. The reaction plate was centrifuged at 1000 rpm/min for 1 minute, and the compound and TRK were pre-incubated at room temperature for 10 minutes. A mixed solution with ATP at a concentration of 160 μM and substrate at a concentration of 1 μM was prepared with the enzyme reaction buffer, and 6 μL of the mixed solution was added to each reaction well. The reaction plate was centrifuged at 1000 rpm/min for 1 minute, and incubated at room temperature for 35 minutes. After the enzyme reaction was completed, 15 μL of ADP-Glo was added to each reaction well. The reaction plate was centrifuged at 1000 rpm/min for 1 minute, and incubated at room temperature for 40 minutes. Then 15 μL of the reaction solution from each well was transferred to a 384-well plate, and then 15 μL of detection substrate was added to each corresponding well of the 384-well plate. The 384-well plate was centrifuged at 1000 rpm/min for 1 minute, and incubated at room temperature for 40 minutes. After the reaction, a microplate reader was used to read the cold luminescence signal value in the 384-well plate.
(§3) The residual viability percentage of each concentration was calculated with the following formula: Residual viability (%)=100*(Lumincompond−Luminblank control)/(Luminpostive control−Luminblank control)
(§4) Then, GraphPad 5.0 was fitted to the effect curve to calculate the IC50 value.

The next data set addresses TRKA (G667C) (Homo sapiens, UniProt P04629, G667C). The data set can be described thus: Detection of TRK inhibitory activity (ADP-Glo kinase assay), TRKA (G667C). The data set is classed as biochemical. The procedure:
as §1, §2, §3, §4
A general note: ADP-Glo turns the ADP formed in a reaction into a luminescent signal.

Data set [1] deals with Ba/F3 ETV6-NTRK3-G623R cell line. The data set can be described thus: Cell experiment, CellTiter-Glo viability, Ba/F3 ETV6-NTRK3-G623R. The data set is classed as cell-based. The conditions noted are these: Mus musculus, BaF3, 72 hours, CTG. The procedure: (§5) Cell culture and seeding: (1) cells in logarithmic growth phase were harvested and counted using a […]. The cell viability was detected by trypan blue exclusion method to ensure that the cell viability was above 90%. (2) The cell concentration was adjusted; and 90 μl of cell suspension was added to the 96-well plate.
(§6) 10 μl of drug solution was added to each well in a 96-well plate inoculated with cells, triplicate per concentration.
(§7) End-point for reading: (1) The CTG reagent was thawed and the cell plate was equilibrated to room temperature for 30 minutes. (2) Equal volume of CTG solution was added to each well. (3) The plated was shaken on an orbital shaker for 5 minutes to lyse the cells. (4) The cell plate was placed at room temperature for 20 minutes to stabilize the cold light signal. (5) The cold light value was read.
(§8) GraphPad Prism 7.0 software was used to analyze the data, and nonlinear S-curve regression was fitted the data to get the dose-effect curve, and the IC50 value was calculated therefrom. Cell survival (%)=(Lumtest drug−Lumculture control)/(Lumcell control−Lumculture control)×100%.

Data set [2] has as its system Ba/F3 LMNA-NTRK1-G595R cell line. The data set can be described thus: Cell experiment, CellTiter-Glo viability, Ba/F3 LMNA-NTRK1-G595R. The data set is classed as cell-based. The following applies: Mus musculus, BaF3, 72 hours, CTG. The procedure:
as §5, §6, §7, §8
Background: Cellular ATP, detected with luciferase, serves as a proxy for viable cell number.

In data set [3] the test system is Ba/F3 LMNA-NTRK1-F589L cell line. The data set can be described thus: Cell experiment, CellTiter-Glo viability, Ba/F3 LMNA-NTRK1-F589L. The conditions noted are these: Mus musculus, BaF3, 72 hours, CTG. The format is cell-based. The procedure: as §5, §6, §7, §8
The subject of the next data set is NIH-3T3ΔTRKA G595R cells. The data set can be described thus: Drug Efficacy Test 1: tumor growth in Balb/c Nude mice. The data set is classed as in vivo, mouse. The following applies: subcutaneous NIH-3T3ΔTRKA G595R tumors, start at about 100 mm^3, FIG. 1. The procedure:
NIH-3T3 ATRKA G595R cells are polyclonal stable transfected cell lines constructed based on TRKA mutation by our laboratory. Balb/c Nude mice, female, 6-8 weeks old, weighing 18-22 grams, were purchased from Chengdu Dashuo Experimental Animal Co., Ltd.
NIH-3T3 ATRKA G595R cells in the logarithmic growth phase were collected, counted and adjusted to a suitable cell density. 0.1 mL cell suspension (2×10^6 cells) was inoculated subcutaneously into the right back of each mouse. When the average tumor volume reached about 100 mm^3, mice were randomly divided into groups (m=6) for administrating the compound of Example 1 in solvent PEG400:HPBCD (20%, W/V) (3:1).
(§9) At the end of the experiment, all surviving experimental animals were sacrificed.
(§10) Tumor volume was calculated using formula: V=0.5 (a×b^2), wherein a and b represent the long and short diameters of the tumor, respectively.
(§11) Graph Pad Prism 6.0 was used for graph analysis.

Data set [4] concerns BA/F3 ETV6-NTRK3 G623R cells. The data set can be described thus: Drug Efficacy Test 2: tumor growth in Balb/c Nude mice. The format is in vivo, mouse. The conditions noted are these: subcutaneous BA/F3 ETV6-NTRK3 G623R tumors, start at about 100 mm^3, FIG. 2. As to the method:
BA/F3 ETV6-NTRK3 G623R cells are polyclonal stable transfected cell lines constructed based on TRKA mutation by our laboratory. Balb/c Nude mice, female, 6-8 weeks old, weighing 18-22 grams, were purchased from Chengdu Dashuo Experimental Animal Co., Ltd.
BA/F3 ETV6-NTRK3 G623R cells in logarithmic growth phase were collected, counted and adjusted to a suitable cell density. 0.1 mL cell suspension (2×10^6 cells) was inoculated subcutaneously into the right back of each mouse. When the average tumor volume reached about 100 mm^3, mice were randomly divided into groups (m=5) for administrating the compound of Example 1 in solvent PEG400:HPBCD (20%, W/V) (3:1).
as §9, §10
GraphPadPrism6.0 was used for graph analysis.

For data set [5], the system named is BA/F3 ETV6-NTRK3 G623R cells. The data set can be described thus: Drug Efficacy Test 3: tumor growth in SCID mice. The format is in vivo, mouse. The following applies: subcutaneous BA/F3 ETV6-NTRK3 G623R tumors, start at about 300 mm^3, FIG. 3. As to the method:
BA/F3 ETV6-NTRK3 G623R cells are polyclonal stable transfected cell lines constructed based on TRKA mutation by our laboratory. SCID mice, female, 6-8 weeks old, weighing 18-22 grams, were purchased from Chengdu Dashuo Experimental Animal Co., Ltd.
BA/F3 ETV6-NTRK3 G623R cells in logarithmic growth phase were collected, counted and adjusted to a suitable cell density. 0.1 mL cell suspension (2×10^6 cells) was inoculated subcutaneously into the right back of each mouse. When the average tumor volume reached about 300 mm^3, mice were randomly divided into groups (m=5) for administrating the compound of Example 1 in solvent PEG400:HPBCD (20%, W/V) (3:1).
as §9, §10, §11

The conditions of data set [6]: from C[C@H](CCOc1ccc(F)cc1[C@H]1CCCN1)Nc1c(F)cnc2ccc(Cl)nc12; cn_pd bond; SPhos Pd G3; toluene/tert-butanol; 35.0 mM; 100.0 °C; 16.0 h.

The source of these data is US11584759B2, “Macrocyclic kinase inhibitor” (HITGEN INC., priority 2018, dated 2023).

T1 sequence (P04629 33-796): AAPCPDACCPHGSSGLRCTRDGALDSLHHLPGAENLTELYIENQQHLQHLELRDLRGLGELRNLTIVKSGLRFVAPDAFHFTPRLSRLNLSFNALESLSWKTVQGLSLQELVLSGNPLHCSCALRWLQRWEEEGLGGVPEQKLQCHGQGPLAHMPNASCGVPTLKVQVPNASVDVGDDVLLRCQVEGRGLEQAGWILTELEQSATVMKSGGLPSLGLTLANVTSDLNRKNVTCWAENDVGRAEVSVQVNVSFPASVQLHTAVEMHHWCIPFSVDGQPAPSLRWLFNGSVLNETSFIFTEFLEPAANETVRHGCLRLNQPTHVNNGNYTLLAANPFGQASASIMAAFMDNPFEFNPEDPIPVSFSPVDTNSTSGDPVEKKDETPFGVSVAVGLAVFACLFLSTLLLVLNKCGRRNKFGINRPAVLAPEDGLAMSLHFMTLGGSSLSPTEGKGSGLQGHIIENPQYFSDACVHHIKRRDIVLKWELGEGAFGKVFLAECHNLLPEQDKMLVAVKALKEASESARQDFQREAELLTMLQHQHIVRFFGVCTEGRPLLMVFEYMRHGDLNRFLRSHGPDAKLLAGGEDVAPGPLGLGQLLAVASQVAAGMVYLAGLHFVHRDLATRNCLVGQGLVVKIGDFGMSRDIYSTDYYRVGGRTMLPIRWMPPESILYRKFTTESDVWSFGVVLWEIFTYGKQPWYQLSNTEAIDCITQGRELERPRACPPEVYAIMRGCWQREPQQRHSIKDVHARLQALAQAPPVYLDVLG
TRKA (G667C), sequence (P04629 33-796 G667C): as the sequence (P04629 33-796) above, with G635C counted along it

For `C[C@@H]1CCOc2ccc(F)cc2[C@H]2CCCN2c2ccc3ncc(C#N)c(c3n2)N1` [Example 1, (6R,16R)-9-fluoro-16-methyl-3-oxa-2,17,21,25-tetraazapentacyclo [16.6.2.0^2,^6.0^7,^12.0^22,^26]hexacosane-1(25),7,9,11,18(26),19,21,23-octane-19-nitrile], the IC50 on TRKA Protein (wild type) was less than 50 nM; against TRKA (G667C), less than 50 nM; in [1] it was 17.3 nM; in [2] it was 2.5 nM; in data set [3], 3.8 nM. For the same molecule, the IC90 in data set [1] was 42.3 nM; in data set [2] it was 83.2 nM; in data set [3] it was 17.1 nM. The “Inhibition of tumor growth (tumor volume)” value (in the data set with NIH-3T3ΔTRKA G595R cells; in data set [4]; in data set [5]) was “inhibits the growth” in each case.
In data set [6], `C[C@@H]1CCOc2ccc(F)cc2[C@H]2CCCN2c2ccc3ncc(F)c(c3n2)N1` [Example 19, (6R,16R)-9,19-difluoro-16-methyl-13-oxa-2,17,21,25-tetraazapentacyclo[16.6.2.0^2,^6.0^7,^12.0^22,^26]hexacosane-1(25),7,9,11,18(26),19,21,23-octane] yielded a ring closure, yield of all isomers of 8.1%. For the same molecule, the IC50 against TRKA Protein (wild type) and against TRKA (G667C) was less than 50 nM throughout.
Take `CN1CCN(c2ccc(C(=O)Nc3n[nH]c4ccc(Cc5cc(F)cc(F)c5)cc34)c(NC3CCOCC3)c2)CC1` [RXDX-101, reference compound]: the IC50 in data set [1] was 466 nM; in [2] it was 1730 nM; in [3], less than 1 nM. The 90% effect concentration (IC90) in data set [1] worked out at 843 nM; in data set [2], 6120 nM; in data set [3], 1.4 nM.

A word on the IC50: it is the point on the concentration scale where inhibition reaches its midpoint. A higher IC50 goes with a need for much substance. A word on the IC90: it is the point of the concentration-response curve where the effect stands at 90%. Higher therefore signals a need for much substance.
